Like-named read-outs stand apart in the source and are kept apart here.
Tests used:
Type in all cases: binding
broad panel of kinases [1] = target: broad panel of kinases (Homo sapiens, UniProt Q13882); conditions: BRK; 1 μM
broad panel of kinases [2] = target: broad panel of kinases (Homo sapiens, UniProt Q86Y07); conditions: VRK2; 1 μM
broad panel of kinases [3] = target: broad panel of kinases (Homo sapiens, UniProt Q92772); conditions: CDKL2; 1 μM
broad panel of kinases [4] = target: broad panel of kinases (Homo sapiens, UniProt P31749); conditions: AKT1; 1 μM
broad panel of kinases [5] = target: broad panel of kinases (Homo sapiens, UniProt Q00536); conditions: PCTK1; 1 μM
broad panel of kinases [6] = target: broad panel of kinases (Homo sapiens, UniProt P15056, V600E); conditions: BRAF(V600E); 1 μM
broad panel of kinases [7] = target: broad panel of kinases (Homo sapiens, UniProt P50750); conditions: CDK9; 1 μM
broad panel of kinases [8] = target: broad panel of kinases (Homo sapiens, UniProt Q00537); conditions: PCTK2; 1 μM
broad panel of kinases [9] = target: broad panel of kinases (Homo sapiens, UniProt Q9P2K8, S808G); conditions: GCN2(Kin.Dom.2, S808G); 1 μM
broad panel of kinases [10] = target: broad panel of kinases (Homo sapiens, UniProt Q8NI60); conditions: ADCK3; 1 μM
broad panel of kinases [11] = target: broad panel of kinases (Homo sapiens, UniProt Q15418); conditions: 1 μM
broad panel of kinases [12] = target: broad panel of kinases (Homo sapiens, UniProt Q8NG66); conditions: NEK11; 1 μM
broad panel of kinases [13] = target: broad panel of kinases (Homo sapiens, UniProt P08581); conditions: MET; 1 μM
broad panel of kinases [14] = target: broad panel of kinases (Homo sapiens, UniProt P36894); conditions: BMPR1A; 1 μM
broad panel of kinases [15] = target: broad panel of kinases (Homo sapiens, UniProt Q9Y2H1); conditions: NDR2; 1 μM
broad panel of kinases [16] = target: broad panel of kinases (Homo sapiens, UniProt P52333); conditions: JAK3(JH1domain-catalytic); 1 μM
broad panel of kinases [17] = target: broad panel of kinases (Homo sapiens, UniProt Q56UN5); conditions: YSK4; 1 μM
broad panel of kinases [18] = target: broad panel of kinases (Homo sapiens, UniProt O95747); conditions: OSR1; 1 μM
broad panel of kinases [19] = target: broad panel of kinases (Homo sapiens, UniProt P11362); conditions: FGFR1; 1 μM
broad panel of kinases [20] = target: broad panel of kinases (Homo sapiens, UniProt Q13470); conditions: TNK1; 1 μM
broad panel of kinases [21] = target: broad panel of kinases (Homo sapiens, UniProt P06239); conditions: LCK; 1 μM
broad panel of kinases [22] = target: broad panel of kinases (Homo sapiens, UniProt Q9UPZ9); conditions: ICK; 1 μM
broad panel of kinases [23] = target: broad panel of kinases (Homo sapiens, UniProt P08922); conditions: ROS1; 1 μM
broad panel of kinases [24] = target: broad panel of kinases (Homo sapiens, UniProt P29597); conditions: 1 μM
broad panel of kinases [25] = target: broad panel of kinases (Homo sapiens, UniProt P37173); conditions: TGFBR2; 1 μM
broad panel of kinases [26] = target: broad panel of kinases (Homo sapiens, UniProt Q9H1R3); conditions: MYLK2; 1 μM
broad panel of kinases [27] = target: broad panel of kinases (Homo sapiens, UniProt P04626); conditions: ERBB2; 1 μM
broad panel of kinases [28] = target: broad panel of kinases (Homo sapiens, UniProt O00141); conditions: SGK; 1 μM
broad panel of kinases [29] = target: broad panel of kinases (Homo sapiens, UniProt P42336, H1047Y); conditions: PIK3CA(H1047Y); 1 μM
broad panel of kinases [30] = target: broad panel of kinases (Homo sapiens, UniProt P54764); conditions: EPHA4; 1 μM
broad panel of kinases [31] = target: broad panel of kinases (Homo sapiens, UniProt Q2M2I8); conditions: AAK1; 1 μM
broad panel of kinases [32] = target: broad panel of kinases (Homo sapiens, UniProt P22455); conditions: FGFR4; 1 μM
broad panel of kinases [33] = target: broad panel of kinases (Homo sapiens, UniProt Q99755); conditions: PIP5K1A; 1 μM
broad panel of kinases [34] = target: broad panel of kinases (Homo sapiens, UniProt P19784); conditions: CSNK2A2; 1 μM
broad panel of kinases [35] = target: broad panel of kinases (Homo sapiens, UniProt P43403); conditions: ZAP70; 1 μM
broad panel of kinases [36] = target: broad panel of kinases (Mycobacterium tuberculosis, UniProt P9WI81)
broad panel of kinases [37] = target: broad panel of kinases (Homo sapiens, UniProt Q8N4C8); conditions: MINK; 1 μM

Sequence of broad panel of kinases (Homo sapiens, UniProt Q9Y2H1) (Q9Y2H1 2-464 limits assumed): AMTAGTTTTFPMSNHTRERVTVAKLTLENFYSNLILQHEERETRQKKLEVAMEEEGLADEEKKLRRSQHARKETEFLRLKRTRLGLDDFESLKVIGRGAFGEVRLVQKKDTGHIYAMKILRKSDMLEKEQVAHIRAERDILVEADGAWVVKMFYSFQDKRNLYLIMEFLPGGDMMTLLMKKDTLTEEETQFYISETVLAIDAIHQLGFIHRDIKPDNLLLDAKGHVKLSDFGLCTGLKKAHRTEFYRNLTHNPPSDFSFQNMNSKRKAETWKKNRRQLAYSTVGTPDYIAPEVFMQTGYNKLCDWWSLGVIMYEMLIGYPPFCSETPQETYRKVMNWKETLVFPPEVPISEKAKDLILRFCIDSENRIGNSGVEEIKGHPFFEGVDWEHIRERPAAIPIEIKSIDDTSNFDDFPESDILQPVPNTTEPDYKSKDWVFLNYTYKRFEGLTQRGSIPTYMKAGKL
Sequence of broad panel of kinases (Homo sapiens, UniProt P37173) (P37173 23-567 limits assumed): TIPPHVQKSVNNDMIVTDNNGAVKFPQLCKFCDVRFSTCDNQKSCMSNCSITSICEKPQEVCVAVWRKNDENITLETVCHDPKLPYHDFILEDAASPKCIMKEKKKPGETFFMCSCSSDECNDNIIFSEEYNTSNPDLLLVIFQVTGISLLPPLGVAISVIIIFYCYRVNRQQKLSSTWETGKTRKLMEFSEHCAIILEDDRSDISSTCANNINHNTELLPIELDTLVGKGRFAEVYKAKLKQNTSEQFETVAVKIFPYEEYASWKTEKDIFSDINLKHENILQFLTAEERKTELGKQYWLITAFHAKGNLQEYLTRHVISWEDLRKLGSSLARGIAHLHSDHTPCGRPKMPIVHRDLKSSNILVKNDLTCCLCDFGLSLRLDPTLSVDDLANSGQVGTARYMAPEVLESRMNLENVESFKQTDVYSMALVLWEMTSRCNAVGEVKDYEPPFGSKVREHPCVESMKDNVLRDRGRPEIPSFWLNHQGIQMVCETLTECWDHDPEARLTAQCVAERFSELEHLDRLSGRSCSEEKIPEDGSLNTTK
Sequence of broad panel of kinases (Homo sapiens, UniProt O95747) (O95747 2-527 limits assumed): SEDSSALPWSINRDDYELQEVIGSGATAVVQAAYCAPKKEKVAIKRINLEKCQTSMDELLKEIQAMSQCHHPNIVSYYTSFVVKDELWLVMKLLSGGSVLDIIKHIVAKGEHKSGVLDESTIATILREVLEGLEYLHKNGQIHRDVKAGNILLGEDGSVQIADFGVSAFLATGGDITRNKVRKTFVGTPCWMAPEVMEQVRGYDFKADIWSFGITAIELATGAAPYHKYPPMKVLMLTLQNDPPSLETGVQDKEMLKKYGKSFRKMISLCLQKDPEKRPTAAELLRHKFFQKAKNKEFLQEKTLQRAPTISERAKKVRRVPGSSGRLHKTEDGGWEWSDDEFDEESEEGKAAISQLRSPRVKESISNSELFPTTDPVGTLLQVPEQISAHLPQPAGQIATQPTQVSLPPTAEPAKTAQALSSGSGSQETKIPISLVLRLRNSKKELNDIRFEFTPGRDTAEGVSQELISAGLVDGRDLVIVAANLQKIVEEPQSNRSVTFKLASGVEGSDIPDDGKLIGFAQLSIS
Sequence of broad panel of kinases (Homo sapiens, UniProt P08581) (P08581 25-1390 limits assumed): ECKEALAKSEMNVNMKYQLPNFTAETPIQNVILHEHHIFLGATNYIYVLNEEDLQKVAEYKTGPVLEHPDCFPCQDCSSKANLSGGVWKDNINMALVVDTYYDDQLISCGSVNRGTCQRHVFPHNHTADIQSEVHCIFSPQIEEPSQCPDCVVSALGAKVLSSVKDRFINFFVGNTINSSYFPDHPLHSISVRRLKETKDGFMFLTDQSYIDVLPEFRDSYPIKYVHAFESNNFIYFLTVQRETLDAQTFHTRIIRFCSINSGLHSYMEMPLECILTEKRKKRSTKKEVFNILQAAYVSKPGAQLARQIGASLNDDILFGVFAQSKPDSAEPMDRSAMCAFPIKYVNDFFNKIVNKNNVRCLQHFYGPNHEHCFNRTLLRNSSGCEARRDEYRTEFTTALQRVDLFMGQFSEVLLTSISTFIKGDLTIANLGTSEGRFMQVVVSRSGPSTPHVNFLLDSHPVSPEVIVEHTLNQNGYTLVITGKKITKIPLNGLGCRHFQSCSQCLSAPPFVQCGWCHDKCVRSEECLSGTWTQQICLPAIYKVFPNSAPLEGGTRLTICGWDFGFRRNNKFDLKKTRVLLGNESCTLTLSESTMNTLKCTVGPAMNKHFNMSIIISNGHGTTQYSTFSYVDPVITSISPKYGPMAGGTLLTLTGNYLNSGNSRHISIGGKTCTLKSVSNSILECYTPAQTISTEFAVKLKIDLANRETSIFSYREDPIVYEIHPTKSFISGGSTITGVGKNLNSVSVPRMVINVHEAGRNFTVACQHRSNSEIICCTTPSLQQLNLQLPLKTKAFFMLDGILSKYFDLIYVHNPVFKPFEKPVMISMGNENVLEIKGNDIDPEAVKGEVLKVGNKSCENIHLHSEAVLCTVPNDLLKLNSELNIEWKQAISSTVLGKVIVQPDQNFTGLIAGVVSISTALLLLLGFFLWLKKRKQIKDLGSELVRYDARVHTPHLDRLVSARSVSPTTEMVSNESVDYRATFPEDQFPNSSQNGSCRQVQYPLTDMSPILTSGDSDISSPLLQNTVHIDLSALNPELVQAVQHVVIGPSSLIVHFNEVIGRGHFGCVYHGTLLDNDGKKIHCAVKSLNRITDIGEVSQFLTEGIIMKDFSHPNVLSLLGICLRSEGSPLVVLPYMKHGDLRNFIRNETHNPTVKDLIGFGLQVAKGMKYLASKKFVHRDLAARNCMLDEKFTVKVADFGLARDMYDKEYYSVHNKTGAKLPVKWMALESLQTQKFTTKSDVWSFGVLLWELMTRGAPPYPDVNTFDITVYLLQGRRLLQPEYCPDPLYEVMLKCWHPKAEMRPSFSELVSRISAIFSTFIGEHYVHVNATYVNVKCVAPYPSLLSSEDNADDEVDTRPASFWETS
Sequence of broad panel of kinases (Homo sapiens, UniProt P54764) (P54764 20-986 limits assumed): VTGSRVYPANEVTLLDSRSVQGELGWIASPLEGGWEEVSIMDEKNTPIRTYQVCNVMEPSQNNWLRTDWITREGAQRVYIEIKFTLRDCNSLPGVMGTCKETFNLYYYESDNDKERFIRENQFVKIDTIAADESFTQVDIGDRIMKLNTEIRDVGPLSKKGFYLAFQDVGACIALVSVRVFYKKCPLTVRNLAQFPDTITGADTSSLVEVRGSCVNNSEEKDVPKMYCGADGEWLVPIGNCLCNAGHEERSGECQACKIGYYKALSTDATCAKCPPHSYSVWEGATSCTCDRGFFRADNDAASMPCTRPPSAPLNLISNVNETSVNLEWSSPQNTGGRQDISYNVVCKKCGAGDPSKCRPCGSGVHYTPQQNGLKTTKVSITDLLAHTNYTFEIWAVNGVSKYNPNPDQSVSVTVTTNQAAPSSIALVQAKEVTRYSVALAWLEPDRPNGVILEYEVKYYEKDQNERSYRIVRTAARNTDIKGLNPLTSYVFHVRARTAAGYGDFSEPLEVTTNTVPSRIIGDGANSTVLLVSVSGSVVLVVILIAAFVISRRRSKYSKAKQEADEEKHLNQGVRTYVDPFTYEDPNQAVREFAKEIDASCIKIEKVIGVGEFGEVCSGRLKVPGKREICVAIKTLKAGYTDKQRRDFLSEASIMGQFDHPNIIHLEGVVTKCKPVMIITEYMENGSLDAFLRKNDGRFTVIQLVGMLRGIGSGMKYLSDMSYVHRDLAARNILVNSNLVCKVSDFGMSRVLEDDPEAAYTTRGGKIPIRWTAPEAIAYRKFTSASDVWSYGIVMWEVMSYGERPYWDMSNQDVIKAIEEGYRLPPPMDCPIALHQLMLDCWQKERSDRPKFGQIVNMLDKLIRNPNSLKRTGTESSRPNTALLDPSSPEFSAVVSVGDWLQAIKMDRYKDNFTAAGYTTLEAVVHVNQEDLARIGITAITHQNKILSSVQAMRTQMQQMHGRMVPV
Sequence of broad panel of kinases (Homo sapiens, UniProt P11362) (P11362 22-822 limits assumed): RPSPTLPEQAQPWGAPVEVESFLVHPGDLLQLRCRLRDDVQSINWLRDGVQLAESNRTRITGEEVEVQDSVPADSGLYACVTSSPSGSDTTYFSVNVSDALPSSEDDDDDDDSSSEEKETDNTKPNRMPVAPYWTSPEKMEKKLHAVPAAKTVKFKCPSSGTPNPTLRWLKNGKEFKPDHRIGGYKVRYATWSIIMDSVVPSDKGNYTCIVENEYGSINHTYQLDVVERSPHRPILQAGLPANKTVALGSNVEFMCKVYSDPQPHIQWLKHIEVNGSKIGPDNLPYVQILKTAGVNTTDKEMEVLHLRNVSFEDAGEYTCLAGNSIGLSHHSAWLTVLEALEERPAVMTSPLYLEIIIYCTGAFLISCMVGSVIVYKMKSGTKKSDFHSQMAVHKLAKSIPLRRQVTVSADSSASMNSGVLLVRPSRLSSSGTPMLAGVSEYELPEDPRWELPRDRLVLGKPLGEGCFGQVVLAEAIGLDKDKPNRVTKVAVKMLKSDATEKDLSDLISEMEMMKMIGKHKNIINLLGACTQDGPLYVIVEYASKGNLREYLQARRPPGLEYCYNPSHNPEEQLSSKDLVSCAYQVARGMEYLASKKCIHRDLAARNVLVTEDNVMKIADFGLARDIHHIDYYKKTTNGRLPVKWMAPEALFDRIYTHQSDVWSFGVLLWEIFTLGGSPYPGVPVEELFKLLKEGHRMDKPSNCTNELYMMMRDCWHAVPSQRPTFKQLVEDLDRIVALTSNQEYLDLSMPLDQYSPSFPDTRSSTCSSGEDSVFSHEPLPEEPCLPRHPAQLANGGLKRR

Structure (SMILES) | percent of control binding remaining (lower = stronger binding) (broad panel of kinases [1]) | percent of control binding remaining (lower = stronger binding) (broad panel of kinases [2]) | percent of control binding remaining (lower = stronger binding) (broad panel of kinases [3]) | percent of control binding remaining (lower = stronger binding) (broad panel of kinases [4]) | percent of control binding remaining (lower = stronger binding) (broad panel of kinases [5]) | percent of control binding remaining (lower = stronger binding) (broad panel of kinases [6]) | percent of control binding remaining (lower = stronger binding) (broad panel of kinases [7]) | percent of control binding remaining (lower = stronger binding) (broad panel of kinases [8]) | percent of control binding remaining (lower = stronger binding) (broad panel of kinases [9]) | percent of control binding remaining (lower = stronger binding) (broad panel of kinases [10]) | percent of control binding remaining (lower = stronger binding) (broad panel of kinases [11]; RSK1(Kin.Dom.1-N-terminal)) | percent of control binding remaining (lower = stronger binding) (broad panel of kinases [11]; RSK1(Kin.Dom.2-C-terminal)) | percent of control binding remaining (lower = stronger binding) (broad panel of kinases [12]) | percent of control binding remaining (lower = stronger binding) (broad panel of kinases [13]) | percent of control binding remaining (lower = stronger binding) (broad panel of kinases [14]) | percent of control binding remaining (lower = stronger binding) (broad panel of kinases [15]) | percent of control binding remaining (lower = stronger binding) (broad panel of kinases [16]) | percent of control binding remaining (lower = stronger binding) (broad panel of kinases [17]) | percent of control binding remaining (lower = stronger binding) (broad panel of kinases [18]) | percent of control binding remaining (lower = stronger binding) (broad panel of kinases [19]) | further results
C=CC(=O)N1CC[C@H](Nc2nc(CN3CCOCC3)cc(Nc3ncc(C(=O)Nc4c(C)cccc4C)s3)n2)C1 [Example I-2] | 1.6% | 94% | 88% | 95% | 97% | 1.6% | 90% | 100% | 85% | 9.2% | 73% | 100% | 83% | 97% | 100% | 96% | 0% | 100% | 81% | 91% | percent of control binding remaining (lower = stronger binding) (broad panel of kinases [20]): 100%; percent of control binding remaining (lower = stronger binding) (broad panel of kinases [21]): 0.65%; percent of control binding remaining (lower = stronger binding) (broad panel of kinases [22]): 86%; percent of control binding remaining (lower = stronger binding) (broad panel of kinases [23]): 97%; percent of control binding remaining (lower = stronger binding) (broad panel of kinases [24]; TYK2(JH1domain-catalytic)): 89%; percent of control binding remaining (lower = stronger binding) (broad panel of kinases [24]; TYK2(JH2domain-pseudokinase)): 28%; percent of control binding remaining (lower = stronger binding) (broad panel of kinases [25]): 94%; percent of control binding remaining (lower = stronger binding) (broad panel of kinases [26]): 100%; percent of control binding remaining (lower = stronger binding) (broad panel of kinases [27]): 7.5%; percent of control binding remaining (lower = stronger binding) (broad panel of kinases [28]): 56%; percent of control binding remaining (lower = stronger binding) (broad panel of kinases [29]): 100%; percent of control binding remaining (lower = stronger binding) (broad panel of kinases [30]): 0%; percent of control binding remaining (lower = stronger binding) (broad panel of kinases [31]): 97%; percent of control binding remaining (lower = stronger binding) (broad panel of kinases [32]): 100%; percent of control binding remaining (lower = stronger binding) (broad panel of kinases [33]): 92%; percent of control binding remaining (lower = stronger binding) (broad panel of kinases [34]): 57%; percent of control binding remaining (lower = stronger binding) (broad panel of kinases [35]): 99%; % change compared to control (broad panel of kinases [36]): 73%; percent of control binding remaining (lower = stronger binding) (broad panel of kinases [37]): 71%
C=CC(=O)N1CC[C@H](Nc2nccc(Nc3ncc(C(=O)Nc4c(C)cccc4C)s3)n2)C1 [Example I-3] | 9.3% | 70% | 78% | 95% | 100% | 2.1% | 75% | 81% | 100% | 49% | 91% | 100% | 49% | 94% | 92% | 58% | 0% | 100% | 98% | 93% | percent of control binding remaining (lower = stronger binding) (broad panel of kinases [20]): 100%; % change compared to control (broad panel of kinases [21]): 0.55%; percent of control binding remaining (lower = stronger binding) (broad panel of kinases [22]): 87%; percent of control binding remaining (lower = stronger binding) (broad panel of kinases [23]): 90%; percent of control binding remaining (lower = stronger binding) (broad panel of kinases [24]; TYK2(JH1domain-catalytic)): 91%; percent of control binding remaining (lower = stronger binding) (broad panel of kinases [24]; TYK2(JH2domain-pseudokinase)): 26%; percent of control binding remaining (lower = stronger binding) (broad panel of kinases [25]): 100%; percent of control binding remaining (lower = stronger binding) (broad panel of kinases [26]): 100%; percent of control binding remaining (lower = stronger binding) (broad panel of kinases [27]): 0.8%; percent of control binding remaining (lower = stronger binding) (broad panel of kinases [28]): 61%; percent of control binding remaining (lower = stronger binding) (broad panel of kinases [29]): 96%; percent of control binding remaining (lower = stronger binding) (broad panel of kinases [30]): 0%; percent of control binding remaining (lower = stronger binding) (broad panel of kinases [31]): 100%; percent of control binding remaining (lower = stronger binding) (broad panel of kinases [32]): 100%; percent of control binding remaining (lower = stronger binding) (broad panel of kinases [33]): 91%; percent of control binding remaining (lower = stronger binding) (broad panel of kinases [34]): 70%; percent of control binding remaining (lower = stronger binding) (broad panel of kinases [35]): 100%; % change compared to control (broad panel of kinases [36]): 91%; percent of control binding remaining (lower = stronger binding) (broad panel of kinases [37]): 66%

Source: patent US10844077B2, “Thiazolyl-containing compounds for treating proliferative diseases” (Dana-Farber Cancer Institute, Inc., priority 2014, dated 2020)
